US20220380341A1, “INHIBITORS OF HIV-1 NEF FOR THE TREATMENT OF HIV DISEASE” (priority 2018, published 2022)
pKd: −log10 of the molar value. Read-outs that look alike come from different tables or passages of the source.

How the values were obtained:
TZM-bl cell line = format: cell-based; conditions: human, 1 μM
Summary of the method: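 TZM-bl cells (HIV-1 LTR-luciferase) infected with HIV-1NL4-3 with compound at 1 μM; luciferase read 48 h later. Percent inhibition normalized to DMSO wild-type infection (0%) and Nef-defective HIV-1 infection (100% of Nef-dependent effect). Viability in uninfected TZM-bl cells by Cell Titer Blue.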

HIV-1NL4-3 = assay: HIV-1 infectivity assay in TZM-bl reporter cell line (LTR-luciferase, 48 h); format: cell-based; conditions: Human immunodeficiency virus 1, TZM-bl
Summary of the method: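 Nef-dependent infectivity in TZM-bl cells: HIV-1NL4-3 infection with 1 μM compound, luciferase read at 48 h, normalized against DMSO wild-type and Nef-defective controls. Compound cytotoxicity in uninfected cells measured by Cell Titer Blue.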

HIV-1 NefNL4-3 = HIV-1 NefNL4-3 (Human immunodeficiency virus type 1 group M subtype B, UniProt P03406, A33V/T15A/T51N/V11I); assay: Surface plasmon resonance binding to recombinant full-length Nef (NL4-3); conditions: for Nef NL4-3 Binding, SPR 1:1 or 2-site fitting KD1: 1:1 Langmuir fit where the KD2 cell says '1 to 1 fitting', else 2-site fit; for RU30/RUNef (extent of binding): response units at 30 μM relative to Nef immobilized on the SPR chip
[1] = 48 h, Table 1, TZM-bl cells, 1 μM, 48 h, 100% = Nef-defective HIV-1, read-out: HIV-1 Infectivity % Inhibition Norm. to Δ-Nef @ 1 μM
[2] = 1.0 μM, TZM-bl reporter cell line, Table 4, read-out: % Infectivity Inhibition
[3] = KD, M, Table 4, SPR fit 2-step induced fit, KD = koff/kon × koff2/(koff2 + kon2)
[4] = Nef NL4-3 Binding, SPR 2-state fitting KD, Table 1, 2-step induced-fit model
[5] = Table 4, 2-step induced fit, T = 1/koff2
[6] = read-out: Nef NL4-3 Binding, SPR 1:1 or 2-site fitting KD2, Table 1, 2-site fit, second component
[7] = KD, M, Table 4, SPR fit 1:1 Langmuir, KD = koff/kon
[8] = Table 4, 1:1 Langmuir fit, T = 1/koff

Oc1c(CCc2ccc(F)cc2)c(CC2CCN(Cc3cccnc3)CC2)nn1-c1nc2ccccc2[nH]1 [Compound I-808, 1-(1H-1,3-benzodiazol-2-yl)-4-[2-(4-fluorophenyl)ethyl]-3-({1-[(pyridin-3-yl)methyl]piperidin-4-yl}methyl)-1H-pyrazol-5-ol]
Percent Viability @ 1 μM (TZM-bl cells) (TZM-bl cell line): 102.6% | inhibition at 1 µM (HIV-1NL4-3; [1]): 12.8% | Nef NL4-3 Binding, SPR 1:1 or 2-site fitting KD1 (HIV-1 NefNL4-3; Table 1): No Interaction

Oc1c(CCc2ccc(F)cc2)c(CC2CCN(Cc3ccncc3)CC2)nn1-c1nc2ccccc2[nH]1 [Compound I-809, 1-(1H-1,3-benzodiazol-2-yl)-4-[2-(4-fluorophenyl)ethyl]-3-({1-[(pyridin-4-yl)methyl]piperidin-4-yl}methyl)-1H-pyrazol-5-ol]
Percent Viability @ 1 μM (TZM-bl cells) (TZM-bl cell line): 97.9% | inhibition at 1 µM (HIV-1NL4-3; [1]): 14.1% | pKd (HIV-1 NefNL4-3): 5.56

Oc1c(CCc2ccc(F)cc2)c(CNCc2ccncc2)nn1-c1nc2ccccc2[nH]1 [Compound I-810, 1-(1H-1,3-benzodiazol-2-yl)-4-[2-(4-fluorophenyl)ethyl]-3-({[(pyridin-4-yl)methyl]amino}methyl)-1H-pyrazol-5-ol]
% Cell Viability (TZM-bl cell line): 100% | Percent Viability @ 1 μM (TZM-bl cells) (TZM-bl cell line): 101.3% | inhibition at 1 µM (HIV-1NL4-3; [2]): 42.8% | inhibition at 1 µM (HIV-1NL4-3; [1]): 42.8% | pKd (HIV-1 NefNL4-3): 7.15 | pKd (HIV-1 NefNL4-3; [3]): 5.45 | pKd (HIV-1 NefNL4-3; [4]): 5.45 | T, minutes (residence time) (HIV-1 NefNL4-3; [5]): 5.97E + 00 minutes | pKd (HIV-1 NefNL4-3; [6]): 5.50 | RU30/RUNef (extent of binding) (HIV-1 NefNL4-3): 3.75E- 03

Oc1c(CCc2ccc(F)cc2)c(CNCc2cccnc2)nn1-c1nc2ccccc2[nH]1 [Compound I-811, 1-(1H-1,3-benzodiazol-2-yl)-4-[2-(4-fluorophenyl)ethyl]-3-({[(pyridin-3-yl)methyl]amino}methyl)-1H-pyrazol-5-ol]
% Cell Viability (TZM-bl cell line): 100% | Percent Viability @ 1 μM (TZM-bl cells) (TZM-bl cell line): 100.7% | inhibition at 1 µM (HIV-1NL4-3; [2]): 8.3% | inhibition at 1 µM (HIV-1NL4-3; [1]): 8.3% | pKd (HIV-1 NefNL4-3): 6.25 | pKd (HIV-1 NefNL4-3; [3]): 4.90 | pKd (HIV-1 NefNL4-3; [4]): 4.90 | T, minutes (residence time) (HIV-1 NefNL4-3; [5]): 3.83E- 01 minutes | pKd (HIV-1 NefNL4-3; [6]): 5.62 | RU30/RUNef (extent of binding) (HIV-1 NefNL4-3): 3.57E- 03

Oc1c(CCC2CCN(c3ncc(F)cn3)CC2)c(C2CC2)nn1-c1nc2cc(Cl)ccc2[nH]1 [Compound I-901, 1-(5-chloro-1H-1,3-benzodiazol-2-yl)-3-cyclopropyl-4-{2-[1-(5-fluoropyrimidin-2-yl)piperidin-4-yl]ethyl}-1H-pyrazol-5-ol]
% Cell Viability (TZM-bl cell line): 100% | Percent Viability @ 1 μM (TZM-bl cells) (TZM-bl cell line): 105.0% | inhibition at 1 µM (HIV-1NL4-3; [2]): 14.3% | inhibition at 1 µM (HIV-1NL4-3; [1]): 14.3% | pKd (HIV-1 NefNL4-3): 6.32 | pKd (HIV-1 NefNL4-3; [3]): 10.82 | pKd (HIV-1 NefNL4-3; [4]): 10.82 | T, minutes (residence time) (HIV-1 NefNL4-3; [5]): 2.46E + 05 minutes | RU30/RUNef (extent of binding) (HIV-1 NefNL4-3): 2.23E- 03

COc1cc(N2CCC(CCc3c(C4CC4)nn(-c4nc5cc(Cl)ccc5[nH]4)c3O)CC2)nc(OC)n1 [Compound I-902, 1-(5-chloro-1H-1,3-benzodiazol-2-yl)-3-cyclopropyl-4-{2-[1-(2,6-dimethoxypyrimidin-4-yl)piperidin-4-yl]ethyl}-1H-pyrazol-5-ol]
% Cell Viability (TZM-bl cell line): 100% | Percent Viability @ 1 μM (TZM-bl cells) (TZM-bl cell line): 106.5% | inhibition at 1 µM (HIV-1NL4-3; [2]): 13.8% | inhibition at 1 µM (HIV-1NL4-3; [1]): 13.8% | pKd (HIV-1 NefNL4-3): 8.18 | pKd (HIV-1 NefNL4-3; [3]): 11.44 | pKd (HIV-1 NefNL4-3; [4]): 11.44 | T, minutes (residence time) (HIV-1 NefNL4-3; [5]): 1.46E + 06 minutes | RU30/RUNef (extent of binding) (HIV-1 NefNL4-3): 7.18E- 03

Oc1c(CCc2ccc(F)cc2)c(C2CCCN(CC(F)(F)F)C2)nn1-c1nc2ccccc2[nH]1 (centres unmarked) [Compound I-1002, 1-(1H-1,3-benzodiazol-2-yl)-4-[2-(4-fluorophenyl)ethyl]-3-[1-(2,2,2-trifluoroethyl)piperidin-3-yl]-1H-pyrazol-5-ol]
Percent Viability @ 1 μM (TZM-bl cells) (TZM-bl cell line): 96.4% | inhibition at 1 µM (HIV-1NL4-3; [1]): 22.7% | pKd (HIV-1 NefNL4-3; [6]): 5.77

Oc1c(CCc2ccc(F)cc2)c(C2CCN(CC(F)(F)F)CC2)nn1-c1nc2ccccc2[nH]1 [Compound I-1003, 1-(1H-1,3-benzodiazol-2-yl)-4-[2-(4-fluorophenyl)ethyl]-3-[1-(2,2,2-trifluoroethyl)piperidin-4-yl]-1H-pyrazol-5-ol]
Percent Viability @ 1 μM (TZM-bl cells) (TZM-bl cell line): 100.9% | inhibition at 1 µM (HIV-1NL4-3; [1]): 42.3% | pKd (HIV-1 NefNL4-3): 5.74

Oc1c(CCc2ccc(F)cc2)c(CC2CCN(CC(F)(F)F)CC2)nn1-c1nc2ccccc2[nH]1 [Compound I-1004, 1-(1H-1,3-benzodiazol-2-yl)-4-[2-(4-fluorophenyl)ethyl]-3-{[1-(2,2,2-trifluoroethyl)piperidin-4-yl]methyl}-1H-pyrazol-5-ol]
% Cell Viability (TZM-bl cell line): 100% | Percent Viability @ 1 μM (TZM-bl cells) (TZM-bl cell line): 101.3% | inhibition at 1 µM (HIV-1NL4-3; [2]): 0% | inhibition at 1 µM (HIV-1NL4-3; [1]): -12.3% | pKd (HIV-1 NefNL4-3): 6.45 | pKd (HIV-1 NefNL4-3; [7]): 6.45 | T, minutes (residence time) (HIV-1 NefNL4-3; [8]): 2.82E + 01 minutes | RU30/RUNef (extent of binding) (HIV-1 NefNL4-3): 2.27E- 03

Oc1c(CC2CCN(CC(F)(F)F)CC2)c(-c2ccc(C(F)(F)F)cc2)nn1-c1nc2ccccc2[nH]1 [Compound I-1005, 1-(1H-1,3-benzodiazol-2-yl)-4-{[1-(2,2,2-trifluoroethyl)piperidin-4-yl]methyl}-3-[4-(trifluoromethyl)phenyl]-1H-pyrazol-5-ol]
% Cell Viability (TZM-bl cell line): 93.5% | Percent Viability @ 1 μM (TZM-bl cells) (TZM-bl cell line): 93.5% | inhibition at 1 µM (HIV-1NL4-3; [2]): 49.2% | inhibition at 1 µM (HIV-1NL4-3; [1]): 49.2% | pKd (HIV-1 NefNL4-3): 7.04 | pKd (HIV-1 NefNL4-3; [7]): 7.04 | T, minutes (residence time) (HIV-1 NefNL4-3; [8]): 9.47E + 00 minutes | RU30/RUNef (extent of binding) (HIV-1 NefNL4-3): 1.26E- 03

Oc1c(CCC2CCN(CC(F)(F)F)CC2)c(-c2ccc(C(F)(F)F)cc2)nn1-c1nc2ccccc2[nH]1 [Compound I-1006, 1-(1H-1,3-benzodiazol-2-yl)-4-{2-[1-(2,2,2-trifluoroethyl)piperidin-4-yl]ethyl}-3-[4-(trifluoromethyl)phenyl]-1H-pyrazol-5-ol]
% Cell Viability (TZM-bl cell line): 85.2% | Percent Viability @ 1 μM (TZM-bl cells) (TZM-bl cell line): 85.2% | inhibition at 1 µM (HIV-1NL4-3; [2]): 83.1% | inhibition at 1 µM (HIV-1NL4-3; [1]): 83.1% | pKd (HIV-1 NefNL4-3): 6.33 | pKd (HIV-1 NefNL4-3; [3]): 8.91 | pKd (HIV-1 NefNL4-3; [4]): 8.91 | T, minutes (residence time) (HIV-1 NefNL4-3; [5]): 1.80E + 04 minutes | pKd (HIV-1 NefNL4-3; [6]): 4.82 | RU30/RUNef (extent of binding) (HIV-1 NefNL4-3): 5.08E- 03

O=C(O)c1ccc(-c2nn(-c3nc4ccccc4[nH]3)c(O)c2CCc2ccc(F)cc2)cc1 [Compound I-1101, 4-[1-(1H-1,3-benzodiazol-2-yl)-4-[2-(4-fluorophenyl)ethyl]-5-hydroxy-1H-pyrazol-3-yl]benzoic acid]
Percent Viability @ 1 μM (TZM-bl cells) (TZM-bl cell line): 99.3% | inhibition at 1 µM (HIV-1NL4-3; [1]): -9.9% | pKd (HIV-1 NefNL4-3): 6.42

O=C(NCC1CC1)c1ccc(-c2nn(-c3nc4ccccc4[nH]3)c(O)c2CCc2ccc(F)cc2)cc1 [Compound I-1201, 4-[1-(1H-1,3-benzodiazol-2-yl)-4-[2-(4-fluorophenyl)ethyl]-5-hydroxy-1H-pyrazol-3-yl]-N-(cyclopropylmethyl)benzamide]
% Cell Viability (TZM-bl cell line): 95.4% | Percent Viability @ 1 μM (TZM-bl cells) (TZM-bl cell line): 95.4% | inhibition at 1 µM (HIV-1NL4-3; [2]): 11.8% | inhibition at 1 µM (HIV-1NL4-3; [1]): 11.8% | pKd (HIV-1 NefNL4-3): 6.43 | pKd (HIV-1 NefNL4-3; [3]): 6.13 | pKd (HIV-1 NefNL4-3; [4]): 6.13 | T, minutes (residence time) (HIV-1 NefNL4-3; [5]): 2.06E + 03 minutes | pKd (HIV-1 NefNL4-3; [6]): 5.60 | RU30/RUNef (extent of binding) (HIV-1 NefNL4-3): 2.17E- 02

Nc1c(CCc2ccc(F)cc2)c(-c2ccc(Cl)cc2)nn1-c1nc2ccccc2[nH]1 [Compound I-1401, 1-(1H-1,3-benzodiazol-2-yl)-3-(4-chlorophenyl)-4-[2-(4-fluorophenyl)ethyl]-1H-pyrazol-5-amine]
Percent Viability @ 1 μM (TZM-bl cells) (TZM-bl cell line): 99.7% | inhibition at 1 µM (HIV-1NL4-3; [1]): -34.5% | Nef NL4-3 Binding, SPR 1:1 or 2-site fitting KD1 (HIV-1 NefNL4-3; Table 1): No Interaction

Nc1c(CCC2CCOCC2)c(-c2ccc(F)cc2)nn1-c1cc(C(F)(F)F)n[nH]1 [Compound I-1402]
Percent Viability @ 1 μM (TZM-bl cells) (TZM-bl cell line): 102.2% | inhibition at 1 µM (HIV-1NL4-3; 48 h, Table 2, TZM-bl cells, 1 μM, 48 h, 100% = Nef-defective HIV-1, read-out: HIV-1 Infectivity % Inhibition Norm. to Δ-Nef @ 1 μM): 8.7% | pKd (HIV-1 NefNL4-3): 5.32
